The target in series [1] is T1, efDHQase (3-dehydroquinate dehydratase from Enterococcus faecalis; also DEF) (Enterococcus faecalis, UniProt P36923).
T1 construct: gene aroD; full-length aroD in modified pET-15b, N-terminal 10xHis tag removed with thrombin; expressed in E. coli aroD- pTara; homodimer; catalytic Lys170
T1 sequence (P36923 1-253): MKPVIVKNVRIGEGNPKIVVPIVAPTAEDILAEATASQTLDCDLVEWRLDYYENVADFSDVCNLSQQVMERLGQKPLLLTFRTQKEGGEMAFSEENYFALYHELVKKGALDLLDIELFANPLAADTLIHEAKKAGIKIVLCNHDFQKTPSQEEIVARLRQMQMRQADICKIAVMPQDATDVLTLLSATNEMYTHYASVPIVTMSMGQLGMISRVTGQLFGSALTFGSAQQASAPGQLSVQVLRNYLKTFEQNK
As to the kind of experiment: efSHD-coupled NADPH oxidation assay, […] nm. The series is classed as biochemical.

Substrate in the series “purified protein”: O=C1C[C@@](O)(C(=O)O)C[C@@H](O)[C@@H]1O
As to the kind of experiment: purified protein. As to conditions: 0.25 mM NADPH, 50 mM HEPES pH 7.5, 25°C, 10 nM efSHD as coupling enzyme. The series is classed as biochemical, Enterococcus faecalis.

The values that follow come from article PMC4114755, “Identification of Polyketide Inhibitors Targeting 3-Dehydroquinate Dehydratase in the Shikimate Pathway of Enterococcus faecalis” (PLoS ONE, 2014).

In general, Ki refers to a measure of affinity in units of concentration, obtained from inhibition or displacement. The low end stands for tighter binding, the high end for weaker binding. Usually Km stands for the concentration of substrate that gives half-maximal velocity. By kcat is commonly meant the maximal rate divided by the concentration of active sites.

Molecule `O=c1c(O)c(-c2ccc(O)c(O)c2)oc2c(O[C@@H]3O[C@H](CO)[C@@H](O)[C@H](O)[C@H]3O)c(O)cc(O)c12` [Gossypin] gave a Ki in series [1] of 79 ± 14 µM.

Take `O=c1cc(-c2ccc(O)c(O[C@@H]3O[C@H](CO)[C@@H](O)[C@H](O)[C@H]3O)c2)oc2cc(O[C@@H]3O[C@H](CO)[C@@H](O)[C@H](O)[C@H]3O)cc(O)c12` [Luteolin-3′-7-diglucoside]: the Ki in series [1] was 89 ± 3 µM.

For `O=C(/C=C/c1ccc(O)c(O)c1)c1ccc(O[C@@H]2O[C@H](CO)[C@@H](O)[C@H](O)[C@H]2O)c(O)c1O` [Marein], the affinity in series [1], expressed as Ki, was 340 ± 79 µM.

With `O=c1cc(-c2ccc(O)c(O)c2)oc2cc(O)c([C@@H]3O[C@H](CO)[C@@H](O)[C@H](O)[C@H]3O)c(O)c12` [Homoorientin], the Ki in series [1] is 140 ± 11 µM.

With `C[C@@H]1O[C@@H](OC[C@H]2O[C@@H](Oc3c(-c4ccc(O)c(O)c4)oc4cc(O)cc(O)c4c3=O)[C@H](O)[C@@H](O)[C@@H]2O)[C@H](O)[C@H](O)[C@H]1O` [Rutin], affinity in series [1] was put at a Ki of 210 ± 28 µM.

In series [1], `O=c1ccc2cc(O[C@@H]3O[C@H](CO)[C@@H](O)[C@H](O)[C@H]3O)c(O)cc2o1` [Aesculine] returned a Ki of 180 ± 38 µM.

With `O=c1cc(-c2ccc(O)c(O)c2)oc2cc(O[C@@H]3O[C@H](CO)[C@@H](O)[C@H](O)[C@H]3O)cc(O)c12` [Luteolin-7-glucoside], the Ki in series [1] amounted to 69 ± 16 µM.

In series [1], `O=c1ccc2ccc(O)cc2o1` [7-Hydroxycoumarin] came in with a Ki of 42 ± 19 µM.

The molecule `C[C@@H]1O[C@@H](O[C@H]2[C@H](Oc3cc(O)c4c(=O)cc(-c5ccc(O)cc5)oc4c3)O[C@H](CO)[C@@H](O)[C@@H]2O)[C@H](O)[C@H](O)[C@H]1O` [Rhoifolin] yielded a Ki in series [1] of 19 ± 9 µM.

B1: efDHQase (3-dehydroquinate dehydratase from Enterococcus faecalis; also DEF) (Enterococcus faecalis V583) (protein)
chain: T1 sequence (P36923 1-253)
notes: full-length aroD in modified pET-15b, N-terminal 10xHis tag removed with thrombin; expressed in E. coli aroD- pTara; homodimer; catalytic Lys170
As for B1, in “purified protein”, the Km was determined as 65 µM and the catalytic constant (kcat) worked out at 110 s⁻¹.
